Assay results reported in US10842152B2, “Isothiazolo-based bicycles, processes for their preparation and their use as herbicides and/or plant growth regulators” (Bayer CropScience Aktiengesellschaft, priority 2017, dated 2020).

Columns and labels:
Meloidogyne incognita = Meloidogyne incognita test; format: in vivo; details: application rate 20 ppm, after 14 days, salad seedlings
Protocol: Solvent: 125.0 parts by weight of acetone
To produce a suitable preparation of active compound, 1 part by weight of active compound is mixed with the stated amount of solvent, and the concentrate is diluted with water to the desired concentration.
Vessels are filled with sand, a solution of the active ingredient, a suspension containing eggs and larvae of the southern root-knot nematode (Meloidogyne incognita) and salad seeds. The salad seeds germinate and the seedlings grow. Galls develop in the roots.
After 14 days the nematicidal activity is determined on the basis of the percentage of gall formation. 100% means no galls were found and 0% means the number of galls found on the roots of the treated plants was equal to that in untreated control plants.

Alopecurus myosuroides = test: Herbicidal effect pre-emergence; format: in vivo; details: 320 g/ha, visual grading after ca. 3 weeks vs untreated controls
Description: (§1) Herbicidal activities of the compounds of the formulae (G1) or (G2) according to the invention were investigated against the following harmful plants: • ALOMY=Alopecurus myosuroides • ECHCG=Echinochloa crus-galli • SETVI=Setaria viridis • ABUTH=Abutilon theophrasti • AMARE=Amaranthus retroflexus • PHBPU=Pharbitis purpurea • POLCO=Polygonum convolvulus (=Fallopia convolvulus) • STEME=Stellaria media • VIOTR=Viola tricolor
(§2) Seeds of mono- and dicotyledonous weed plants and crop plants are sown in wood-fiber pots in sandy loam and covered with soil. The compounds according to the invention, formulated in the form of wettable powders (WP) or as emulsifiable concentrates (EC), are then applied to the surface of the covering soil as aqueous suspension or emulsion, with the addition of 0.5% of an additive, at an application rate of 600 l of water/ha (converted).
(§3) Following treatment, the pots are placed in a greenhouse and kept under optimum growth conditions for the test plants. The visual grading of the damage to the test plants is carried out after ca. 3 weeks in comparison to untreated controls (herbicidal effect in percent (%): 100% effect=plants have died off, 0% effect=as control plants).

Amaranthus retroflexus [1] = test: Herbicidal effect pre-emergence; format: in vivo; details: 320 g/ha, visual grading after ca. 3 weeks vs untreated controls
Description: as §1, §2, §3

Setaria viridis [2] = test: Herbicidal effect pre-emergence; format: in vivo; details: 320 g/ha, visual grading after ca. 3 weeks vs untreated controls
Description: as §1, §2, §3

Stellaria media [3] = test: Herbicidal effect pre-emergence; format: in vivo; details: 320 g/ha, visual grading after ca. 3 weeks vs untreated controls
Description: as §1, §2, §3

Viola tricolor [4] = test: Herbicidal effect pre-emergence; format: in vivo; details: 320 g/ha, visual grading after ca. 3 weeks vs untreated controls
Description: as §1, §2, §3

MATIN [5] = test: Herbicidal effect pre-emergence; format: in vivo, Matricaria inodora; details: 320 g/ha, visual grading after ca. 3 weeks vs untreated controls
Description: as §2, §3

Abutilon theophrasti = test: Herbicidal effect post-emergence; format: in vivo; details: 320 g/ha, visual grading after ca. 3 weeks (Table 8)
Description: as §1
(§4) Seeds of mono- and dicotyledonous weed plants and crop plants are sown in wood-fiber pots in sandy loam, covered with soil and grown in a greenhouse under controlled growth conditions. 2 to 3 weeks after sowing, the test plants are sprayed in the single-leaf stage. The compounds according to the invention, formulated in form of wettable powders (WP) or as emulsifiable concentrates (EC), are then sprayed onto the green plant parts as aqueous suspension or emulsion, with the addition of 0.5% of an additive, at an application rate of 600 l of water/ha (converted). After the test plants had been in the greenhouse for ca. 3 weeks under optimum growth conditions, the effect of the preparations is assessed visually in comparison with untreated controls (herbicidal effect in percent (%): 100% effect=plants have died off, 0% effect=as control plants).

Amaranthus retroflexus [6] = test: Herbicidal effect post-emergence; format: in vivo; details: 320 g/ha
Description: as §1, §4

Setaria viridis [7] = test: Herbicidal effect post-emergence; format: in vivo; details: 320 g/ha
Description: as §1, §4

Viola tricolor [8] = test: Herbicidal effect post-emergence; format: in vivo; details: 320 g/ha
Description: as §1, §4

Nezara viridula = Nezara viridula spray test; format: in vivo; details: application rate 500 g/ha, after 4 days, barley plants
Protocol: Solvent: 78.0 parts by weight of acetone • • 1.5 parts by weight of dimethylformamide
Emulsifier: alkylarylpolyglycol ether
To produce a suitable preparation of active compound, 1 part by weight of active compound is mixed with the stated amount of solvent, and the concentrate is diluted with water, containing an emulsifier concentration of 1000 ppm, to the desired concentration. Further test concentrations are prepared by dilution with emulsifier containing water.
Barley plants (Hordeum vulgare) infested with larvae of the southern green stink bug (Nezara viridula) are sprayed with a test solution containing the desired concentration of the active ingredient.
After 4 days mortality in % is determined. 100% means all the stink bugs have been killed; 0% means none of the stink bugs have been killed.

Pharbitis purpurea = test: Herbicidal effect post-emergence; format: in vivo; details: 320 g/ha, visual grading after ca. 3 weeks (Table 7)
Description: as §1, §4

[9] = test system: Polygonum convolvulus (=Fallopia convolvulus); test: Herbicidal effect post-emergence; format: in vivo; details: 320 g/ha, visual grading after ca. 3 weeks (Table 7)
Description: as §1, §4

Stellaria media [10] = test: Herbicidal effect post-emergence; format: in vivo; details: 320 g/ha, visual grading after ca. 3 weeks (Table 7)
Description: as §1, §4

MATIN [11] = test: Herbicidal effect post-emergence; format: in vivo, Matricaria inodora; details: 320 g/ha, visual grading after ca. 3 weeks (Table 7)
Description: as §4

[12] = visual grading after ca. 3 weeks (Table 8)
[13] = visual grading after ca. 3 weeks (Table 9)
[14] = visual grading after ca. 3 weeks (Table 7)

Row | SMILES | herbicidal effect ALOMY (Alopecurus myosuroides) | herbicidal effect AMARE (Amaranthus retroflexus [1]) | herbicidal effect SETVI (Setaria viridis [2]) | herbicidal effect STEME (Stellaria media [3]) | herbicidal effect VIOTR (Viola tricolor [4]) | herbicidal effect MATIN (MATIN [5]) | herbicidal effect AMARE (Amaranthus retroflexus [6]; [14]) | herbicidal effect PHBPU (Pharbitis purpurea) | herbicidal effect POLCO [9] | herbicidal effect SETVI (Setaria viridis [7]; [14]) | herbicidal effect STEME (Stellaria media [10]) | herbicidal effect VIOTR (Viola tricolor [8]; [14]) | herbicidal effect MATIN (MATIN [11]) | other results
1 | CC(C)Cc1cc2c(N)nsc2c(=O)n1CC1CCCCC1 [Example I-050] | – | – | – | – | – | – | – | – | – | – | – | – | – | nematicidal activity (gall formation) (Meloidogyne incognita): 90%
2 | CCC(=O)Nc1nsc2c(=O)n(CC3CCCCC3)cc(Cl)c12 [Example I-083] | 100% | 100% | 100% | 100% | 100% | 100% | – | – | – | – | – | – | – | herbicidal effect ABUTH (Abutilon theophrasti): 80%; herbicidal effect AMARE (Amaranthus retroflexus [6]; [12]): 100%; herbicidal effect SETVI (Setaria viridis [7]; [12]): 100%; herbicidal effect VIOTR (Viola tricolor [8]; [12]): 100%
3 | CC(=O)Nc1nsc2c(=O)n(CC3CCCCC3)cc(Br)c12 [Example I-102] | – | 100% | 100% | – | 100% | – | – | – | – | – | – | – | – | herbicidal effect AMARE (Amaranthus retroflexus [6]; [13]): 100%; herbicidal effect SETVI (Setaria viridis [7]; [13]): 100%; herbicidal effect VIOTR (Viola tricolor [8]; [13]): 100%; mortality (Nezara viridula): 90%
4 | CCC(=O)N(C(=O)CC)c1nsc2c(=O)n(CC3CCCCC3)c(CO)cc12 [Example I-049] | 80% | 100% | 100% | 100% | 90% | 80% | – | – | – | – | – | – | – | herbicidal effect AMARE (Amaranthus retroflexus [6]; [13]): 90%; herbicidal effect SETVI (Setaria viridis [7]; [13]): 100%; herbicidal effect VIOTR (Viola tricolor [8]; [13]): 100%; nematicidal activity (gall formation) (Meloidogyne incognita): 90%
5 | Nc1nsc2c(=O)n(Cc3cc(F)c(F)cc3F)cc(F)c12 [Example I-163] | 100% | 100% | 100% | 100% | 100% | 100% | – | – | – | – | – | – | – | herbicidal effect ABUTH (Abutilon theophrasti): 90%; herbicidal effect AMARE (Amaranthus retroflexus [6]; [12]): 100%; herbicidal effect SETVI (Setaria viridis [7]; [12]): 90%; herbicidal effect VIOTR (Viola tricolor [8]; [12]): 90%
6 | Nc1nsc2c(=O)n(Cc3cc(F)c(F)cc3F)cc(Cl)c12 [Example I-136] | 100% | 100% | 100% | 100% | 100% | 90% | 100% | 100% | 100% | 90% | 100% | 100% | 100% | –
7 | Nc1nsc2c(=O)n(CC3CCCCC3Cl)cc(Cl)c12 (racemic) [Example I-156] | 100% | 100% | 100% | 100% | 100% | 100% | 100% | 100% | 100% | 100% | 100% | 100% | 80% | –
8 | CCC(=O)OCC1Cc2c(N)nsc2C(=O)N1CC1CCCCC1 (stereo not shown) [Example I-039] | – | 100% | 100% | – | 100% | – | – | – | – | – | – | – | – | herbicidal effect ABUTH (Abutilon theophrasti): 100%; herbicidal effect AMARE (Amaranthus retroflexus [6]; [12]): 100%; herbicidal effect SETVI (Setaria viridis [7]; [12]): 100%; herbicidal effect VIOTR (Viola tricolor [8]; [12]): 100%
9 | CCC(=O)Nc1nsc2c(=O)n(CC3CCCCC3)cc(F)c12 [Example I-128] | 100% | 100% | 100% | 100% | 100% | 100% | 100% | 100% | 100% | 100% | 100% | 100% | 100% | –
10 | Nc1nsc2c(=O)n(CC3CCCCC3)c(COC3CCCCO3)cc12 (stereo not shown) [Example I-038] | – | – | – | – | – | – | – | – | – | – | – | – | – | nematicidal activity (gall formation) (Meloidogyne incognita): 90%
11 | O=C(Nc1nsc2c(=O)n(CC3CCCCC3)cc(F)c12)C(F)(F)C(F)(F)F [Example I-127] | 100% | 100% | 100% | 100% | 100% | 100% | 100% | 100% | 100% | 100% | 100% | 100% | 100% | –
12 | Nc1nsc2c(=O)n(CC3CCCCC3)cc(Cl)c12 [Example I-064] | 100% | 100% | 100% | 100% | 100% | 100% | 100% | 100% | 100% | 100% | 100% | 100% | 100% | –
13 | O=C(Nc1nsc2c(=O)n(CC3CCCCC3Cl)cc(Cl)c12)C(F)(F)F (racemic) [Example I-171] | 100% | 100% | 100% | 100% | 100% | 100% | 100% | 100% | 100% | 100% | 100% | 100% | 90% | –
14 | CCC(=O)Nc1nsc2c(=O)n(CC3CCCCC3Cl)cc(Cl)c12 (racemic) [Example I-172] | 100% | 100% | 100% | 100% | 100% | 100% | – | – | – | – | – | – | – | herbicidal effect ABUTH (Abutilon theophrasti): 100%; herbicidal effect AMARE (Amaranthus retroflexus [6]; [12]): 100%; herbicidal effect SETVI (Setaria viridis [7]; [12]): 80%; herbicidal effect VIOTR (Viola tricolor [8]; [12]): 100%
15 | O=C(Nc1nsc2c(=O)n(CC3CCCCC3Cl)cc(Cl)c12)C(F)(F)C(F)(F)F (racemic) [Example I-161] | 100% | 100% | 100% | 100% | 100% | 100% | 100% | 100% | 100% | 100% | 100% | 100% | 80% | –
16 | CCC(=O)N(C(=O)CC)c1nsc2c(=O)n(CC3CCCCC3)c(COC3CCCCO3)cc12 (stereo not shown) [Example I-042] | – | – | – | – | – | – | – | – | – | – | – | – | – | herbicidal effect AMARE (Amaranthus retroflexus [6]; [13]): 100%; herbicidal effect SETVI (Setaria viridis [7]; [13]): 90%; herbicidal effect VIOTR (Viola tricolor [8]; [13]): 100%; nematicidal activity (gall formation) (Meloidogyne incognita): 90%
